# Reference: PMC6627374, “Effects of the Pentapeptide P33 on Memory and Synaptic Plasticity in APP/PS1 Transgenic Mice: A Novel Mechanism Presenting the Protein Fe65 as a Target” (International Journal of Molecular Sciences, 2019)
# Target: T1, Fe65-WW domain (WW domain of Fe65) (Homo sapiens, UniProt O00213)
# T1 construct: made in house; host or cells: chemical solid-phase peptide synthesis (Fmoc, Rink Amide AM resin); no expression host
# T1 sequence (O00213 253-285 limits assumed): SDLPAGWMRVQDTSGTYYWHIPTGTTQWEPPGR
# Assay: ITC binding to Fe65-WW
# Design: species or system human and mouse (WW domain identical)
# Details: 310 K, PBS pH 7.4, Fe65-WW 83.5 μM in cell, PPPPP 1.056 mM in syringe (control)
# Procedure: Synthesis of acetyl-Fe65-WW, acetyl-Pin1-WW, and the control PPPPP (structures involved in Figure 2) was carried out on a Rink Amide AM (0.3 mmol∙g^−1) resin using Fmoc chemistry and activation with HATU in the presence of DIPEA. Cleavage was achieved by a treatment with TFA/H2O/triisopropylsilane/1,4-dithio-DL-threitol/phenol (90:5:3:1:1) at room temperature (RT). TFA was removed in vacuo, the peptides were then precipitated using cold, dry diethyl-ether, dissolved in ACN/H2O and lyophilized.
# Isothermal titrations were performed using a Microcal VP-ITC (Malvern Instruments, Malvern, UK) microcalorimeter. Binding experiments were carried out in degassed phosphate-buffered saline (PBS) at pH 7.4. The concentrations of Fe65-WW and Pin1-WW were normalized for the peptide contents. In one titration experiment, 10-μL portions of the ligand-containing solution (P33 or PPPPP) were injected from a computer-controlled 300-μL microsyringe at intervals of 300 s into the solution of the WW domain (Fe65-WW or Pin1-WW), dissolved in the same buffer as for the ligand. The rev of the microsyringe was set to 307 rpm. Measurements were repeated twice at 310 K. The starting concentrations of Fe65-WW and Pin1-WW in the cell were 83.5 and 81.4 μM, respectively, and the concentrations of the stock solutions containing P33 or PPPPP in the syringe were 1.006 and 1.056 mM, respectively. Control experiments were performed by injecting P33 or PPPPP into the cell containing plain buffer without the WW domain, with results achieved via subtracting the dilution heats from those measured in the presence of the WW domain.
substance,measurement,value
"PPPPP [control pentapeptide PPPPP, reference compound]",binding to Fe65-WW (in words),no binding between the Fe65-WW and the pentapeptide could be observed
